Results: ChEMBL document CHEMBL1201862, “PubChem BioAssay data set” (2004)
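Results reflect a 48-hour exposure of cells in 96-well plates to compound at five concentrations. Abbreviation: GI50, concentration required for 50% inhibition of growth.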 The source made the active and inactive calls. Cut-off read from the data, not from the text of the source: active = GI50 up to about 1.1 µM and inactive = higher.

Experiments:
Test in all cases: inhibition of tumour cell growth, NCI panel, 48 h
[1] = system: HOP-92
[2] = system: NCI-H460
[3] = system: SNB-19
[4] = system: M14
[5] = system: NCI-H23
[6] = system: KM12
[7] = system: RPMI-8226
[8] = system: SNB-75
[9] = system: SK-MEL-5
[10] = system: MCF7
[11] = system: OVCAR-3
[12] = system: UO-31
[13] = system: HCC 2998
[14] = system: K562
[15] = system: NCI-H226
[16] = system: COLO 205
[17] = system: SK-MEL-28
[18] = system: SK-MEL-2
[19] = system: OVCAR-8
[20] = system: IGROV-1
[21] = system: UACC-257
[22] = system: OVCAR-5
[23] = system: HCT-15
[24] = system: MDA-MB-231
[25] = system: SW-620
[26] = system: CCRF-CEM
[27] = system: NCI-H522
[28] = system: Malme-3M
[29] = system: HT-29
[30] = system: MDA-MB-435
[31] = system: 786-0
[32] = system: PC-3
[33] = system: NCI/ADR-RES
[34] = system: MOLT-4
[35] = system: HCT-116
[36] = system: HOP-62
[37] = system: BT-549
[38] = system: ACHN
[39] = system: OVCAR-4
[40] = system: MDA-N
[41] = system: SF-268
[42] = system: T47D
[43] = system: A498
[44] = system: SN12C
[45] = system: UACC-62
[46] = system: A549
[47] = system: SF-539
[48] = system: RXF 393
[49] = system: LOX IMVI
[50] = system: TK-10
[51] = system: CAKI-1
[52] = system: SK-OV-3
[53] = system: EKVX
[54] = system: DU-145
[55] = system: U-251
[56] = system: SF-295
[57] = system: Hs-578T
[58] = system: HL-60

COc1ccc2[nH]cc(C(=O)C(=O)NC34CC5CC(CC(C5)C3)C4)c2c1
GI50 [1]: 29.5 µM (inactive) | GI50 [2]: 7.31 µM (inactive) | GI50 [3]: 53.5 µM (inactive) | GI50 [4]: 13.9 µM (inactive) | GI50 [5]: > 72.6 µM (inactive) | GI50 [6]: > 26.9 µM (inactive) | GI50 [7]: 4.69 µM (inactive) | GI50 [8]: 37.9 µM (inactive) | GI50 [9]: 32.2 µM (inactive) | GI50 [10]: 10.1 µM (inactive) | GI50 [11]: 8.97 µM (inactive) | GI50 [12]: > 100 µM (inactive) | GI50 [13]: 28.1 µM (inactive) | GI50 [14]: 4.44 µM (inactive) | GI50 [15]: 22.9 µM (inactive) | GI50 [16]: 6.9 µM (inactive) | GI50 [17]: 15.4 µM (inactive) | GI50 [18]: 57.8 µM (inactive) | GI50 [19]: 35.6 µM (inactive) | GI50 [20]: 58.3 µM (inactive) | GI50 [21]: 67.5 µM (inactive) | GI50 [22]: 35.2 µM (inactive) | GI50 [23]: 9.16 µM | GI50 [24]: 40.1 µM (inactive) | GI50 [25]: 38.9 µM (inactive) | GI50 [26]: 9.48 µM (inactive) | GI50 [27]: 36.7 µM (inactive) | GI50 [28]: 46.9 µM (inactive) | GI50 [29]: 2.08 µM (inactive) | GI50 [30]: 41.3 µM (inactive) | GI50 [31]: 8.09 µM (inactive) | GI50 [32]: 38.3 µM (inactive) | GI50 [33]: 55.2 µM (inactive) | GI50 [34]: 2.66 µM (inactive) | GI50 [35]: 20.6 µM (inactive) | GI50 [36]: 16.5 µM (inactive) | GI50 [37]: 43.3 µM (inactive) | GI50 [38]: 29.4 µM (inactive) | GI50 [39]: 29.6 µM (inactive) | GI50 [40]: 84.7 µM (inactive) | GI50 [41]: > 61.1 µM (inactive) | GI50 [42]: 54.1 µM (inactive) | GI50 [43]: 43.8 µM (inactive) | GI50 [44]: 18.9 µM (inactive) | GI50 [45]: 23.8 µM (inactive) | GI50 [46]: 26.2 µM (inactive) | GI50 [47]: 14 µM (inactive) | GI50 [48]: 3.22 µM (inactive) | GI50 [49]: 7.21 µM (inactive) | GI50 [50]: 48.8 µM (inactive) | GI50 [51]: > 45.4 µM (inactive) | GI50 [52]: 73.3 µM (inactive) | GI50 [53]: > 50.1 µM (inactive) | GI50 [54]: 39.4 µM (inactive) | GI50 [55]: 13.5 µM (inactive) | GI50 [56]: 6.9 µM (inactive) | GI50 [57]: 21.4 µM (inactive)

NC(=O)CN1CCN(c2nc(N3CCCC3)c3nc(Cl)c(NCc4ccccc4)nc3n2)CC1
GI50 [1]: 8.36 µM (inactive) | GI50 [2]: 9.12 µM (inactive) | GI50 [3]: 9.89 µM (inactive) | GI50 [4]: 9.91 µM (inactive) | GI50 [5]: 13.7 µM (inactive) | GI50 [6]: 10.6 µM (inactive) | GI50 [7]: 9.89 µM (inactive) | GI50 [8]: 10.7 µM (inactive) | GI50 [9]: 8.45 µM (inactive) | GI50 [10]: 8.87 µM (inactive) | GI50 [11]: 8.39 µM (inactive) | GI50 [12]: 10.7 µM (inactive) | GI50 [13]: 8.38 µM (inactive) | GI50 [14]: 9.86 µM (inactive) | GI50 [15]: 11.8 µM (inactive) | GI50 [16]: 8.75 µM (inactive) | GI50 [17]: 9.46 µM (inactive) | GI50 [18]: 9.66 µM (inactive) | GI50 [19]: 15 µM (inactive) | GI50 [20]: 12.2 µM (inactive) | GI50 [21]: 9.98 µM (inactive) | GI50 [22]: 10.1 µM (inactive) | GI50 [23]: 8.67 µM | GI50 [24]: 10.8 µM (inactive) | GI50 [25]: 11.5 µM (inactive) | GI50 [26]: 13.8 µM (inactive) | GI50 [27]: 10.4 µM (inactive) | GI50 [28]: 8.65 µM (inactive) | GI50 [29]: 9.48 µM (inactive) | GI50 [30]: 10 µM (inactive) | GI50 [31]: 8.89 µM (inactive) | GI50 [32]: 11.8 µM (inactive) | GI50 [33]: 14 µM (inactive) | GI50 [34]: 7.26 µM (inactive) | GI50 [35]: 8 µM (inactive) | GI50 [36]: 0.525 µM (active) | GI50 [37]: 10 µM (inactive) | GI50 [38]: 12.4 µM (inactive) | GI50 [39]: 16 µM (inactive) | GI50 [40]: 8.67 µM (inactive) | GI50 [41]: 8.63 µM (inactive) | GI50 [42]: 7.89 µM (inactive) | GI50 [44]: 9.48 µM (inactive) | GI50 [45]: 9.2 µM (inactive) | GI50 [46]: 12.9 µM (inactive) | GI50 [47]: 9.06 µM (inactive) | GI50 [48]: 7.96 µM (inactive) | GI50 [58]: 8.77 µM (inactive) | GI50 [49]: 9.33 µM (inactive) | GI50 [50]: 14.2 µM (inactive) | GI50 [51]: 17 µM (inactive) | GI50 [52]: 9.91 µM (inactive) | GI50 [53]: 11.8 µM (inactive) | GI50 [54]: 11.5 µM (inactive) | GI50 [55]: 8.59 µM (inactive) | GI50 [56]: 8.89 µM (inactive) | GI50 [57]: 9.66 µM (inactive)
